Patent US9738634B2, “Heterocyclic amide compound and herbicide” (SYNGENTA PARTICIPATIONS AG, priority 2013, dated 2017)

Columns and labels:
Type in all cases: in vivo
[1] = tested on: barnyard grass; experiment: Test Example 1: weedkilling efficacy, preemergent weed treatment in the submerged state; A: barnyard grass; settings: treatment dosage 252 g/ha
Summary of the method: (§1)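 Pots of alluvial soil flooded 4 cm deep, sown with barnyard grass, bulrush and oval-leafed pondweed and transplanted with 2.5-leaf rice. Emulsified compound applied to the water surface on sowing day at stated g/ha; greenhouse 25–30 °C, effects assessed 3 weeks after treatment.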

[2] = tested on: bulrush; experiment: Test Example 1: weedkilling efficacy, preemergent weed treatment in the submerged state; B: bulrush; settings: treatment dosage 252 g/ha
Summary of the method: as §1

[3] = tested on: oval-leafed pondweed; experiment: Test Example 1: weedkilling efficacy, preemergent weed treatment in the submerged state; C: oval-leafed pondweed; settings: treatment dosage 252 g/ha
Summary of the method: as §1

[4] = tested on: transplanted rice; experiment: Test Example 1: preemergent weed treatment in the submerged state, effect on crop; a: transplanted rice; settings: treatment dosage 252 g/ha
Summary of the method: as §1

[5] = tested on: barnyard grass; experiment: Test Example 2: weedkilling efficacy, growth period weed treatment in the submerged state; A: barnyard grass; settings: treatment dosage 252 g/ha
Summary of the method: (§2)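 Barnyard grass, bulrush and oval-leafed pondweed sown in alluvial soil under 4 cm flooding, greenhouse 25 to 30° C. At 1-2 leaf stage, water-diluted emulsion applied to the water surface at stated g/ha dosages; effects scored 3 weeks later.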

[6] = tested on: bulrush; experiment: Test Example 2: weedkilling efficacy, growth period weed treatment in the submerged state; B: bulrush; settings: treatment dosage 252 g/ha
Summary of the method: as §2

[7] = tested on: oval-leafed pondweed; experiment: Test Example 2: weedkilling efficacy, growth period weed treatment in the submerged state; C: oval-leafed pondweed; settings: treatment dosage 252 g/ha
Summary of the method: as §2

[8] = tested on: crabgrass; experiment: Test Example 3: weedkilling efficacy through soil treatment; D: crabgrass; settings: treatment dosage 315 g/ha
Summary of the method: (§3)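 Crop and weed responses were judged three weeks after a uniform surface spray of the water-diluted emulsion at the given g/ha rate. Seeds sat beneath about 1.5 cm of sterilized diluvial soil, and boxes stood in a greenhouse at 25 to 30° C.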

[9] = tested on: green foxtail; experiment: Test Example 3: weedkilling efficacy through soil treatment; E: green foxtail; settings: treatment dosage 315 g/ha
Summary of the method: as §3

[10] = tested on: wild oat; experiment: Test Example 3: weedkilling efficacy through soil treatment; G: wild oat; settings: treatment dosage 315 g/ha
Summary of the method: as §3

[11] = tested on: black-grass; experiment: Test Example 3: weedkilling efficacy through soil treatment; H: black-grass; settings: treatment dosage 315 g/ha
Summary of the method: as §3

[12] = tested on: Italian ryegrass; experiment: Test Example 3: weedkilling efficacy through soil treatment; I: Italian ryegrass; settings: treatment dosage 315 g/ha
Summary of the method: as §3

[13] = tested on: Indian mallow; experiment: Test Example 3: weedkilling efficacy through soil treatment; K: Indian mallow; settings: treatment dosage 315 g/ha
Summary of the method: as §3

[14] = tested on: redroot pigweed; experiment: Test Example 3: weedkilling efficacy through soil treatment; L: redroot pigweed; settings: treatment dosage 315 g/ha
Summary of the method: as §3

[15] = tested on: fig-leafed goosefoot; experiment: Test Example 3: weedkilling efficacy through soil treatment; M: fig-leafed goosefoot; settings: treatment dosage 315 g/ha
Summary of the method: as §3

[16] = tested on: chickweed; experiment: Test Example 3: weedkilling efficacy through soil treatment; N: chickweed; settings: treatment dosage 315 g/ha
Summary of the method: as §3

[17] = tested on: catchweed; experiment: Test Example 3: weedkilling efficacy through soil treatment; O: catchweed; settings: treatment dosage 315 g/ha
Summary of the method: as §3

[18] = tested on: directly sown rice; experiment: Test Example 3: soil treatment, effect on crop; b: directly sown rice; settings: treatment dosage 315 g/ha
Summary of the method: as §3

[19] = tested on: corn; experiment: Test Example 3: soil treatment, effect on crop; c: corn; settings: treatment dosage 315 g/ha
Summary of the method: as §3

[20] = tested on: soybean; experiment: Test Example 3: soil treatment, effect on crop; d: soybean; settings: treatment dosage 315 g/ha
Summary of the method: as §3

[21] = tested on: wheat; experiment: Test Example 3: soil treatment, effect on crop; e: wheat; settings: treatment dosage 315 g/ha
Summary of the method: as §3

[22] = tested on: beet; experiment: Test Example 3: soil treatment, effect on crop; f: beet; settings: treatment dosage 315 g/ha
Summary of the method: as §3

[23] = tested on: crabgrass; experiment: Test Example 4: weedkilling efficacy by foliar treatment; D: crabgrass; settings: treatment dosage 315 g/ha
Summary of the method: (§4)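 Seeds are spot-sown into sterilized diluvial soil and covered with about 1.5 cm of soil. After 14 days' greenhouse growth at 25 to 30° C, plants are sprayed on stems and leaves with diluted emulsion at the stated g/ha rate, then scored at 3 weeks.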

[24] = tested on: green foxtail; experiment: Test Example 4: weedkilling efficacy by foliar treatment; E: green foxtail; settings: treatment dosage 315 g/ha
Summary of the method: as §4

[25] = tested on: wild oat; experiment: Test Example 4: weedkilling efficacy by foliar treatment; G: wild oat; settings: treatment dosage 315 g/ha
Summary of the method: as §4

[26] = tested on: black-grass; experiment: Test Example 4: weedkilling efficacy by foliar treatment; H: black-grass; settings: treatment dosage 315 g/ha
Summary of the method: as §4

[27] = tested on: Italian ryegrass; experiment: Test Example 4: weedkilling efficacy by foliar treatment; I: Italian ryegrass; settings: treatment dosage 315 g/ha
Summary of the method: as §4

[28] = tested on: Indian mallow; experiment: Test Example 4: weedkilling efficacy by foliar treatment; K: Indian mallow; settings: treatment dosage 315 g/ha
Summary of the method: as §4

[29] = tested on: redroot pigweed; experiment: Test Example 4: weedkilling efficacy by foliar treatment; L: redroot pigweed; settings: treatment dosage 315 g/ha
Summary of the method: as §4

[30] = tested on: fig-leafed goosefoot; experiment: Test Example 4: weedkilling efficacy by foliar treatment; M: fig-leafed goosefoot; settings: treatment dosage 315 g/ha
Summary of the method: as §4

[31] = tested on: chickweed; experiment: Test Example 4: weedkilling efficacy by foliar treatment; N: chickweed; settings: treatment dosage 315 g/ha
Summary of the method: as §4

[32] = tested on: catchweed; experiment: Test Example 4: weedkilling efficacy by foliar treatment; O: catchweed; settings: treatment dosage 315 g/ha
Summary of the method: as §4

[33] = tested on: birds-eye speedwell; experiment: Test Example 4: weedkilling efficacy by foliar treatment; p: birds-eye speedwell; settings: treatment dosage 315 g/ha
Summary of the method: as §4

[34] = tested on: directly sown rice; experiment: Test Example 4: foliar treatment, effect on crop; b: directly sown rice; settings: treatment dosage 315 g/ha
Summary of the method: as §4

[35] = tested on: corn; experiment: Test Example 4: foliar treatment, effect on crop; c: corn; settings: treatment dosage 315 g/ha
Summary of the method: as §4

[36] = tested on: soybean; experiment: Test Example 4: foliar treatment, effect on crop; d: soybean; settings: treatment dosage 315 g/ha
Summary of the method: as §4

[37] = tested on: wheat; experiment: Test Example 4: foliar treatment, effect on crop; e: wheat; settings: treatment dosage 315 g/ha
Summary of the method: as §4

[38] = tested on: beet; experiment: Test Example 4: foliar treatment, effect on crop; f: beet; settings: treatment dosage 315 g/ha
Summary of the method: as §4

[39] = tested on: birds-eye speedwell; experiment: Test Example 3: weedkilling efficacy through soil treatment; p: birds-eye speedwell; settings: treatment dosage 315 g/ha
Summary of the method: as §3

Row | SMILES | A (barnyard grass) weedkilling efficacy grade [1] | B (bulrush) weedkilling efficacy grade [2] | C (oval-leafed pondweed) weedkilling efficacy grade [3] | a (transplanted rice) effect on crop grade [4] | A (barnyard grass) weedkilling efficacy grade [5] | B (bulrush) weedkilling efficacy grade [6] | C (oval-leafed pondweed) weedkilling efficacy grade [7] | D (crabgrass) weedkilling efficacy grade [8] | E (green foxtail) weedkilling efficacy grade [9] | G (wild oat) weedkilling efficacy grade [10] | H (black-grass) weedkilling efficacy grade [11] | I (Italian ryegrass) weedkilling efficacy grade [12] | K (Indian mallow) weedkilling efficacy grade [13] | L (redroot pigweed) weedkilling efficacy grade [14] | M (fig-leafed goosefoot) weedkilling efficacy grade [15] | N (chickweed) weedkilling efficacy grade [16] | b (directly sown rice) effect on crop grade [18] | c (corn) effect on crop grade [19] | d (soybean) effect on crop grade [20] | e (wheat) effect on crop grade [21] | further results
1 | CC1=C(c2ccccc2)C(=O)N(C(C)(C)C(=O)Nc2cc(Br)ccn2)CO1 [B-2-30] | 5 (weed kill ratio 90% or more, (practically complete withering)) | 5 (weed kill ratio 90% or more, (practically complete withering)) | 5 (weed kill ratio 90% or more, (practically complete withering)) | 1 (weed kill ratio 5% or more, less than 20%) | 5 (weed kill ratio 90% or more, (practically complete withering)) | 5 (weed kill ratio 90% or more, (practically complete withering)) | 3 (weed kill ratio 40% or more, less than 70%) | 5 (weed kill ratio 90% or more, (practically complete withering)) | 5 (weed kill ratio 90% or more, (practically complete withering)) | 5 (weed kill ratio 90% or more, (practically complete withering)) | 5 (weed kill ratio 90% or more, (practically complete withering)) | 5 (weed kill ratio 90% or more, (practically complete withering)) | 3 (weed kill ratio 40% or more, less than 70%) | 3 (weed kill ratio 40% or more, less than 70%) | 5 (weed kill ratio 90% or more, (practically complete withering)) | 4 (weed kill ratio 70% or more, less than 90%) | 4 (weed kill ratio 70% or more, less than 90%) | 1 (weed kill ratio 5% or more, less than 20%) | 1 (weed kill ratio 5% or more, less than 20%) | 0 (weed kill ratio 5% or less (practically no effect)) | O (catchweed) weedkilling efficacy grade [17]: 5 (weed kill ratio 90% or more, (practically complete withering)); f (beet) effect on crop grade [22]: 4 (weed kill ratio 70% or more, less than 90%); D (crabgrass) weedkilling efficacy grade [23]: 5 (weed kill ratio 90% or more, (practically complete withering)); E (green foxtail) weedkilling efficacy grade [24]: 5 (weed kill ratio 90% or more, (practically complete withering)); G (wild oat) weedkilling efficacy grade [25]: 3 (weed kill ratio 40% or more, less than 70%); H (black-grass) weedkilling efficacy grade [26]: 3 (weed kill ratio 40% or more, less than 70%); I (Italian ryegrass) weedkilling efficacy grade [27]: 4 (weed kill ratio 70% or more, less than 90%); K (Indian mallow) weedkilling efficacy grade [28]: 4 (weed kill ratio 70% or more, less than 90%); L (redroot pigweed) weedkilling efficacy grade [29]: 4 (weed kill ratio 70% or more, less than 90%); M (fig-leafed goosefoot) weedkilling efficacy grade [30]: 4 (weed kill ratio 70% or more, less than 90%); N (chickweed) weedkilling efficacy grade [31]: 3 (weed kill ratio 40% or more, less than 70%); O (catchweed) weedkilling efficacy grade [32]: 4 (weed kill ratio 70% or more, less than 90%); P (birds-eye speedwell) weedkilling efficacy grade [33]: 4 (weed kill ratio 70% or more, less than 90%); b (directly sown rice) effect on crop grade [34]: 5 (weed kill ratio 90% or more, (practically complete withering)); c (corn) effect on crop grade [35]: 1 (weed kill ratio 5% or more, less than 20%); d (soybean) effect on crop grade [36]: 4 (weed kill ratio 70% or more, less than 90%); e (wheat) effect on crop grade [37]: 0 (weed kill ratio 5% or less (practically no effect)); f (beet) effect on crop grade [38]: 4 (weed kill ratio 70% or more, less than 90%)
2 | CC1=C(c2ccccc2)C(=O)N(C(C)(C)C(=O)Nc2nc(Cl)ns2)CO1 [B-1-12] | 5 (weed kill ratio 90% or more, (practically complete withering)) | 5 (weed kill ratio 90% or more, (practically complete withering)) | 5 (weed kill ratio 90% or more, (practically complete withering)) | 0 (weed kill ratio 5% or less (practically no effect)) | 5 (weed kill ratio 90% or more, (practically complete withering)) | 5 (weed kill ratio 90% or more, (practically complete withering)) | 5 (weed kill ratio 90% or more, (practically complete withering)) | 5 (weed kill ratio 90% or more, (practically complete withering)) | 5 (weed kill ratio 90% or more, (practically complete withering)) | 3 (weed kill ratio 40% or more, less than 70%) | 4 (weed kill ratio 70% or more, less than 90%) | 2 (weed kill ratio 20% or more, less than 40%) | 4 (weed kill ratio 70% or more, less than 90%) | 4 (weed kill ratio 70% or more, less than 90%) | 4 (weed kill ratio 70% or more, less than 90%) | 4 (weed kill ratio 70% or more, less than 90%) | 5 (weed kill ratio 90% or more, (practically complete withering)) | 5 (weed kill ratio 90% or more, (practically complete withering)) | 0 (weed kill ratio 5% or less (practically no effect)) | 0 (weed kill ratio 5% or less (practically no effect)) | P (birds-eye speedwell) weedkilling efficacy grade [39]: 4 (weed kill ratio 70% or more, less than 90%); f (beet) effect on crop grade [22]: 5 (weed kill ratio 90% or more, (practically complete withering)); D (crabgrass) weedkilling efficacy grade [23]: 5 (weed kill ratio 90% or more, (practically complete withering)); E (green foxtail) weedkilling efficacy grade [24]: 5 (weed kill ratio 90% or more, (practically complete withering)); G (wild oat) weedkilling efficacy grade [25]: 3 (weed kill ratio 40% or more, less than 70%); H (black-grass) weedkilling efficacy grade [26]: 4 (weed kill ratio 70% or more, less than 90%); I (Italian ryegrass) weedkilling efficacy grade [27]: 1 (weed kill ratio 5% or more, less than 20%); K (Indian mallow) weedkilling efficacy grade [28]: 3 (weed kill ratio 40% or more, less than 70%); L (redroot pigweed) weedkilling efficacy grade [29]: 0 (weed kill ratio 5% or less (practically no effect)); M (fig-leafed goosefoot) weedkilling efficacy grade [30]: 4 (weed kill ratio 70% or more, less than 90%); N (chickweed) weedkilling efficacy grade [31]: 4 (weed kill ratio 70% or more, less than 90%); O (catchweed) weedkilling efficacy grade [32]: 3 (weed kill ratio 40% or more, less than 70%); P (birds-eye speedwell) weedkilling efficacy grade [33]: 3 (weed kill ratio 40% or more, less than 70%); b (directly sown rice) effect on crop grade [34]: 3 (weed kill ratio 40% or more, less than 70%); c (corn) effect on crop grade [35]: 5 (weed kill ratio 90% or more, (practically complete withering)); d (soybean) effect on crop grade [36]: 0 (weed kill ratio 5% or less (practically no effect)); e (wheat) effect on crop grade [37]: 0 (weed kill ratio 5% or less (practically no effect)); f (beet) effect on crop grade [38]: 4 (weed kill ratio 70% or more, less than 90%)
